Reference: patent US12637465B2, “Pharmaceutically acceptable salts of sepiapterin” (PTC Therapeutics MP, Inc., priority 2018, dated 2026)

Assays:
Assay type in all cases: physicochemical
[1] = Solid form stability study of salts and/or co-crystals at 25° C./60% RH and 40° C./75% RH
Procedure: The stability of the prepared salts and/or co-crystals was analyzed after 1 and 2 weeks at 25° C. and 60% relative humidity and 40° C. and 75% relative humidity. […] None of the phosphate, tartrate, or nicotinate salts and/or co-crystals underwent a form change during the stability testing, and each of them retained greater than 97% purity over the two weeks of the study. In fact, both the tartrate and nicotinate both retained greater than 99% purity.

[2] = Form change/disproportionation of residual solids by XRPD after suspension in water or Medisca Oral Mix; settings: for Form change (residual solids, XRPD): RT, listed as L-tartrate salt and/or co-crystal
Procedure: The kinetic solubility was evaluated for nicotinate, phosphate, L-tartrate, and fumarate salts and/or co-crystals of sepiapterin in water and […] Oral Mix. X-ray powder diffraction (XRPD) was performed for the residual solids to identify form change/disproportionation. Solids were suspended into the media with target conc. of 7 mg/mL (calculated by freebase). […] Oral Mix after 1 hour. […] Oral Mix.

[3] = Kinetic solubility in water and Medisca Oral Mix (HPLC solubility, purity and pH of supernatant); settings: RT; for Purity (area %) of supernatant: for reference only; for Purity (area %) of supernatant / pH / Solubility: listed as L-tartrate salt and/or co-crystal; for Solubility: calculated using freebase, target conc. 7 mg/mL
Procedure: The kinetic solubility was evaluated for nicotinate, phosphate, L-tartrate, and fumarate salts and/or co-crystals of sepiapterin in water and […] Oral Mix. X-ray powder diffraction (XRPD) was performed for the residual solids to identify form change/disproportionation. Solids were suspended into the media with target conc. of 7 mg/mL (calculated by freebase).

With `C[C@H](O)C(=O)C1=Nc2c(nc(N)[nH]c2=O)NC1` [L-Tartrate, sepiapterin] the “Stability compared with the other salts and/or co-crystals tested” value [1] was “noticeably more stable than the others”, the “Underwent a form change during the stability testing” value ([1]; 1 and 2 weeks, 25° C./60% RH and 40° C./75% RH) was “None” and the Form change ([1]; 1 week, 25° C./60% RH) was “No”. The “Purity (Area %)” value ([1]; 1 week, 25° C./60% RH) was 98.61 Area %, the “Purity vs. initial (%)” value ([1]; 1 week, 25° C./60% RH) was 99.9% and the Form change ([1]; 1 week, 40° C./75% RH) was “No”. The “Purity (Area %)” value ([1]; 1 week, 40° C./75% RH) was 99.06 Area %, the “Purity vs. initial (%)” value ([1]; 1 week, 40° C./75% RH) was 99.3% and the Form change ([1]; 2 weeks, 25° C./60% RH) was “No”. For the same compound, the “Purity (Area %)” value ([1]; 2 weeks, 25° C./60% RH) was 99.39 Area %, the “Purity vs. initial (%)” value ([1]; 2 weeks, 25° C./60% RH) was 99.6% and the Form change ([1]; 2 weeks, 40° C./75% RH) was “No”. For the same compound, the “Purity (Area %)” value ([1]; 2 weeks, 40° C./75% RH) was 99.00 Area %, the “Purity vs. initial (%)” value ([1]; 2 weeks, 40° C./75% RH) was 99.3% and the “Purity (Area %)” value ([1]; Initial) was 99.75 Area %. The “Form change (residual solids, XRPD)” value ([2]; Medisca Oral Mix, 1 hr) was “Yes”, the “Form change (residual solids, XRPD)” value ([2]; Medisca Oral Mix, 4 hr) was “Yes” and the “Form change (residual solids, XRPD)” value ([2]; Medisca Oral Mix, 24 hr) was “Yes”. For the same compound, the “Form of the residual solids in Medisca Oral Mix” value ([2]; Medisca Oral Mix, after 1 hour) was “converted to freebase”, the “Form change (residual solids, XRPD)” value ([2]; Water, 1 hr) was “Yes” and the “Form change (residual solids, XRPD)” value ([2]; Water, 4 hr) was “Yes”. The “Form change (residual solids, XRPD)” value ([2]; Water, 24 hr) was “Yes”, the “Form of the residual solids in water” value ([2]; water, after 1 hour) was “converted to freebase” and the Observation ([3]; Medisca Oral Mix, 1 hr) was “Turbid”. The “Purity (area %) of supernatant” value ([3]; Medisca Oral Mix, 1 hr) was 99.68 area %, the pH ([3]; Medisca Oral Mix, 1 hr) was 3.3 and the Observation ([3]; Medisca Oral Mix, 4 hr) was “Turbid”. The “Solubility” value ([3]; Medisca Oral Mix, 4 hr) was 2500 µg/mL, the “Purity (area %) of supernatant” value ([3]; Medisca Oral Mix, 4 hr) was 99.54 area % and the pH ([3]; Medisca Oral Mix, 4 hr) was 3.3. For the same compound, the Observation ([3]; Medisca Oral Mix, 24 hr) was “Turbid”, the “Solubility” value ([3]; Medisca Oral Mix, 24 hr) was 3200 µg/mL and the “Purity (area %) of supernatant” value ([3]; Medisca Oral Mix, 24 hr) was 95.67 area %. The pH ([3]; Medisca Oral Mix, 24 hr) was 3.3, the Observation ([3]; Water, 1 hr) was “Turbid” and the “Purity (area %) of supernatant” value ([3]; Water, 1 hr) was 99.34 area %. For the same compound, the pH ([3]; Water, 1 hr) was 2.5, the Observation ([3]; Water, 4 hr) was “Turbid” and the “Purity (area %) of supernatant” value ([3]; Water, 4 hr) was 99.07 area %. The pH ([3]; Water, 4 hr) was 2.5, the Observation ([3]; Water, 24 hr) was “Turbid” and the “Purity (area %) of supernatant” value ([3]; Water, 24 hr) was 95.61 area %. It also gave a pH ([3]; Water, 24 hr) of 2.5.
